According to US20080311681A1, “Antibody Binding Affinity Ligands” (priority 2004, published 2008):
Where “and” joins values, the source holds several entries; their conditions need not be identical. Equal values may be shown once.

The substances below were run on Fc fragment of an antibody (assay: Incubation of bead-bound ligands with labelled Fc fragment, fluorescence on beads). Conditions: Oregon Green labelled Fc fragment, ligands on PEGA1900 beads, overnight at room temperature, arbitrary scale from 0 to 3, judged by eye.
Assay type: binding
Parameters: key: 0 indicates no fluorescence; 3 indicates the strongest level of fluorescence observed
Procedure: The Fc fragment of an antibody was purified by dialysis in bicarbonate buffer (pH 8). The purified Fc fragment was treated with Oregon Green dye (50×) in DMF and kept for 1 hour at room temperature. The reaction was stopped by adding hydroxylamine (1.5 M, pH 8.5). The labelled polypeptide was purified by dialysis in bicarbonate buffer (pH 8).
The beads (10 mg) were washed with water (10×), bicarbonate buffer (pH 8, 10×), and were suspended in bicarbonate buffer for 1 h. The labelled polypeptide was then added to the resin and kept overnight at room temperature. The resin was washed with bicarbonate buffer (pH 8) and water.
The fluorescence on the beads was recorded by using a fluorescence microscope and a digital camera. A mercury lamp equipped with an emission filter provided excitation in the visible blue range. The images of the beads were recorded in water.
The below table lists the ligands and the corresponding apparent level of fluorescence determined by simply looking at the samples and comparing the apparent colour intensities between samples. On an arbitrary scale from 0 to 3, where 0 indicates no fluorescence and 3 indicates the strongest level of fluorescence observed.

Substance | mark (apparent level of fluorescence)
3HBA-(L)Arg-(L)Pro-Gly [LII#44] | 2
3HBA-(L)Pro-(L)Arg-Gly [LII#45] | 2
4HBA-(L)Arg-(L)Pro-Gly [LII#46] | 2
4HBA-(L)Pro-(L)Arg-Gly [LII#47] | 2
D-Lys-INA-(L)Arg-Gly [LI#41] | 2
D-Phe-(L)Arg-(L)Arg-Gly [LI#16] | 2
D-Pro-PPC-(L)Arg-Gly [L1#21] | 2
DBHBA-(L)Arg-(L)Asn-Gly [LII#54] | 3
DBHBA-(L)Asn-(L)Arg-Gly [LII#55] | 3
INA-(L)Arg-D-Lys-Gly [LI#44] | 2
INA-D-Phe-PPC-Gly [LI#12] | 2
L-Arg-(L)Arg-D-Lys-Gly [LI#27] | 2
L-Arg-(L)Arg-D-Phe-Gly [LI#18] | 2
L-Arg-D-Lys-(L)Arg-Gly [LI#26] | 2
L-Arg-D-Phe-(L)Arg-Gly [LI#17] | 3 and 2
L-Arg-D-Pro-PPC-Gly [LI#24] | 2
PPC-(L)Arg-D-Pro-Gly [LI#20] | 2
PPC-Ahx-PPC-Gly [LI#53] | 2
PPC-Aib-PPC-Gly [LI#14] | 2
PPC-D-Leu-PPC-Gly [L1#50] | 3
PPC-D-Pro-(L)Arg-Gly [LI#19] | 3
PPC-Nle-PPC-Gly [LI#56] | 2
SAA-(L)Arg-(L)Pro-Gly [LII#48] | 3
SAA-(L)Pro-(L)Arg-Gly [LII#49] | 3

Same assay, conditions: Oregon Green labelled Fc fragment, ligands on PEGA1900 beads, overnight at room temperature, arbitrary scale from 0 to 3, judged by eye; listed as L1#16

Substance | mark (apparent level of fluorescence)
D-Phe-(L)Arg-(L)Arg-Gly [LI#16] | 3

These substances were tested on monoclonal antibody (assay: Chromatographic evaluation of ligands coupled on Fractogel (packed column, load, wash, elution, regeneration)). Conditions: not optimized operation conditions.
Assay type: binding
Procedure: The new resins were assessed in packed mode. 1 mL of each resin was packed into an HR5 chromatography column (GE Healthcare) applying standard conditions.
Before loading the matrix with the monoclonal antibody, the column was equilibrated with 6 column volumes equilibration buffer containing 50 mM Na-phosphate (pH 7.0; cond. 9 mS cm^−1). After equilibration a monoclonal antibody solution in equilibration buffer (protein conc. 1.14 mg/mL) was loaded to the column. Subsequently, the column was washed with 6 column volumes of equilibration buffer and eluted with 6 column volumes of elution buffer 1 (25 mM sodium acetate pH 5.5; cond. 1.8 mS cm^−1) and 6 column volumes of elution buffer 2 (25 mM sodium acetate buffer pH 3.8; 0.5 mS cm^−1). The column was stored in […] ethanol. Afterwards, the matrix was regenerated with 40 mM phosphoric acid and 20 mM sodium hydroxid. The flow rate for equilibration, load and wash was 60 cm/h, elution and regeneration was performed at a flow rate of 30 cm/h.

Substance | mAb in the flow through (in words)
D-Phe-(L)Arg-(L)Arg-Gly [LI#16] | nothing was detected in the flow through
DBHBA-(L)Asn-(L)Arg-Gly [LII#55] | only limited material is in the flow through
